The values below come from patent US4698341A, “Use of 1,6-naphthyridinone derivatives in treating pulmonary thrombosis” (Godecke Aktiengesellschaft, priority 1983, dated 1987).

Like-named read-outs stand apart in the source and are kept apart here.

For one test, the system named is tenia coli (guinea pig). The experiment in a line: Ca2+ effect on the smooth muscles, tenia coli, inhibition of contraction amplitude. Type of test: cell-based. The following applies: Cavia porcellus, 10 min, 32° C.; for inhibition: 3·10^-5 mol/l. The procedure:
1. Ca^2+ effect on the smooth muscles
Approximately 10 mm long, freshly isolated pieces of the tenia coli (guinea pig) were encircled at both ends with threads and connected with a mechanico-technical transducer in the organ bath (32° C., bubbled through with carbogen). Five to ten mN (0.5-1 p) were selected as mechanical pretension. […] This solution was exchanged for K+-rich and Ca++-free solution (40 mmol/l) KCl for depolarization of the cell membrane, the NaCl concentration being decreased correspondingly. One mmol/l CaCl2 was added to the nutrient solution under equilibrium conditions, resulting in a contraction of the muscle preparation. After reaching the new equilibration the test substance was added to the organ bath.
The percentage inhibition of the contraction amplitude after a ten-minute time of action of the test substance, related to the amplitude prior to administration of the substance, was calculated as substance effect. Each substance was tested in two preparations.

Test [1] deals with left atrium of guinea pig. The experiment in a line: Isolated left atrium of guinea pigs, inhibition of contraction amplitude. Type of test: cell-based. The conditions noted are these: Cavia porcellus; approximate values from four atriums, 35° C., 100 imp/min. The procedure: 2. Isolated atriums of guinea pigs
In a thermostated (35° C.) dissecting dish containing modified nutrient solution acc. to Krebs-Henseleit the left atrium was cautiously separated from the ventricle myocardium by means of scissors and a needle with thread passed through the apex of the atrium and knotted. Subsequently, the basis of the atrium was fastened to the hook of a preparation holder and transferred to a thermostated organ bath containing nutrient solution (25 ml, 35° C.). In the organ bath the thread at the apex of the atrium was attached to a mechanicoelectric transducer. Electrical stimulation was effected supramaximally with a frequency of 100 imp/min (stimulation range 2.5 msec). The hook of the preparation holder represented an electrode, whereas the second electrode was designed as field electrode in the preparation holder parallel to the tensioned atrium.
The substances were cumulatively added to the organ bath at intervals of four minutes.

The subject of test [2] is ADP-induced thrombocyte aggregation (platelet-rich plasma). The experiment in a line: ADP-induced thrombocyte aggregation in vitro (rat). The conditions noted are these: read-out: IC50 value, ADP-induced thrombocyte aggregation. In kind it is cell-based, rat (male Sprague Dawley SIV 50). As for the experimental part:
(§1) Collagen or ADP-induced thrombocyte aggregation in vitro (rat)
(§2) The test was carried out according to the method of BORN (Nature 194, 927-929, 1962). […] Blood was withdrawn from the postorbital venous plexus under ether anesthesia. Nine aliquots of blood were mixed with one aliquot of 3.8% (w/v) tri-Na-citrate solution. After low speed centrifugation of the mixture at room temperature, the platelet-rich plasma (PRP corresponding to the erythrocyte-frree supernatant) was removed and adjusted to a standard concentration of 400 000/μl. A universal aggregometer (Braun, Melsungen) connected with an Eppendorf photometer 1100M (Netheler and Hinz, Hamburg) was used as a measuring instrument. In this test portions of 700 μl of platelet-rich plasma (PRP) were equilibrated in the aggregometer at 37° C. for five minutes and then mixed with 58 μl of the test substance solution or with a 0.9% NaCl solution (corresponding to the blank value). After an incubation time of three minutes, the addition of 35 μl collagen suspension (collagen reagent HORM(®), Hormon Chemie, Munich) or 20 μl ADP solution (end concentration in the test 1×10^-5 mol/liter) causes aggregation. A compensation recorder recorded the change in transmission during the following 15 minutes.
(§3) The largest change in transmission occurring in this period was called amplitude (amp) of the aggregation curve. Aggregation-inhibiting substances produce a decrease of this amplitude; the inhibitory effect (E) of a substance is calculated according to the following formula:
(§4) E=(Ampbank value -AMPtest substance)/Ampblank value
(§5) Dose-effect curves were drawn for calculating the IC50 values.

The subject of test [3] is Collagen-induced thrombocyte aggregation (platelet-rich plasma). Kind of test: Collagen-induced thrombocyte aggregation in vitro (rat). The following applies: read-out: IC50 value, collagen-induced thrombocyte aggregation. In kind it is cell-based, rat (male Sprague Dawley SIV 50). As for the experimental part: as §1, §2, §3, §4, §5
Setting [4] is: rat PRP 400 000/μl, 37° C., ADP 1×10^-5 mol/liter, Arith. M±S.D.
Where [5] appears, read: rat PRP 400 000/μl, 37° C., collagen, Arith. M±S.D.

On to `CCOC(=O)C1=C(C)Nc2ccn(CCCN(C)C)c(=O)c2C1c1cccc([N+](=O)[O-])c1` (stereo not drawn) [Example 2, 1,4,5,6-Tetrahydro-6-(3-dimethylaminopropyl)-2-methyl-4-(3-nitrophenyl)-5-oxo-1,6-naphthyridine-3-carboxylic acid ethyl ester], for which the inhibition (commonly the share of the control response that was lost under treatment) in the test on tenia coli (guinea pig) was determined as 88 ± 12%. Also, the IC50 (in general, the midpoint of a concentration-inhibition curve) is 300 µM in test [1], 510 ± 40 µM in test [2] (setting [4]) and 160 ± 10 µM in test [3] (setting [5]).

The compound `CCOC(=O)C1=C(C)Nc2ccn(CCCN3CCCCC3)c(=O)c2C1c1cccc(Cl)c1` (stereo not drawn) [Example 4 c., 1,4,5,6-Tetrahydro-4-(3-chlorophenyl)-2-methyl-5-oxo-6-(3-piperidinopropyl)-1,6-naphthyridine-3-carboxylic acid ethyl ester] gave an inhibition with tenia coli (guinea pig) of 44 ± 6%. Besides, the IC50 worked out at 300 µM in test [1], 180 ± 10 µM in test [2] (setting [4]) and 60 ± 10 µM in test [3] (setting [5]).

In the test with tenia coli (guinea pig), `CCOC(=O)C1=C(C)Nc2ccn(CCCN3CCCCC3)c(=O)c2C1c1ccccc1Cl` (stereo not drawn) [Example 4 e., 1,4,5,6-Tetrahydro-4-(2-chlorophenyl)-2-methyl-5-oxo-6-(3-piperidinopropyl)-1,6-naphthyridine-3-carboxylic acid ethyl ester.1/2 ethyl acetate] came in with an inhibition of 81 ± 5%. Also, the IC50 in test [1] worked out at 100 µM; in test [2] (setting [4]) it was 330 ± 20 µM; in test [3] (setting [5]), 160 ± 20 µM.

As for `CCOC(=O)C1=C(C)Nc2ccn(CCCN(C)C)c(=O)c2C1c1cccc(Cl)c1` (stereo not drawn) [Example 4 b., 1,4,5,6-Tetrahydro-4-(3-chlorophenyl)-6-(3-dimethylaminopropyl)-2-methyl-5-oxo-1,6-naphthyridine-3-carboxylic acid ethyl ester], the inhibition with tenia coli (guinea pig) was determined as 57 ± 7%. Also, the values for the IC50 in test [1], in test [2] (setting [4]) and in test [3] (setting [5]) were 300 µM, 410 ± 50 µM and 160 ± 10 µM, respectively.

Take `COc1ccc(CCN(C)CCCC(C#N)(c2ccc(OC)c(OC)c2)C(C)C)cc1OC` (stereo not drawn) [Verapamil, reference compound]: at 1 µM the inhibition in the test on tenia coli (guinea pig) (10^-6 mol/l) was 100%. Further, the IC50 amounted to 2 µM in test [1], 560 ± 60 µM in test [2] (Rattus norvegicus) and 210 ± 20 µM in test [3] (Rattus norvegicus).

`CCOC(=O)C1=C(C)Nc2ccn(CCCN3CCCCC3)c(=O)c2C1c1cccc([N+](=O)[O-])c1` (stereo not drawn) [Example 4 f., 1,4,5,6-Tetrahydro-2-methyl-4-(3-nitrophenyl)-5-oxo-6-(3-piperidinopropyl)-1,6-naphthyridine-3-carboxylic acid ethyl ester]: in the test with tenia coli (guinea pig), the inhibition was determined as 79 ± 3%. The IC50 stood at 100 µM in test [1], 240 ± 10 µM in test [2] (setting [4]) and 70 ± 10 µM in test [3] (setting [5]).
